From patent publication US20220106301A1, “ACETAMIDO-PHENYLBENZAMIDE DERIVATIVES AND METHODS OF USING THE SAME” (Athenex, Inc., priority 2020, published 2022) come the findings set out here.

Molecules are shown by their SMILES.

Broadly, the IC50 is the midpoint of a concentration-inhibition curve. Higher therefore signals weaker potency in that assay.

The target in this experiment is CYP3A4 (Homo sapiens, UniProt P08684). Kind of experiment: Determination of CYP3A4 inhibitory activity (human liver microsome, Luciferin-IPA). The following applies: CYP3A4 IC50 (nM), 37° C. 11 minutes. As for the experimental part: The standard final Compound concentrations were 37, 111, 333, 1000, and 3000 nM. 12.5 μL of the Compound dilutions were transferred to a white 96-well plate. […] 25 μL of the buffer was added to each well. The plates were incubated at 37° C. for 11 minutes. 50 μL of luciferin detection reagent (Promega V9002) was added and the plates were incubated at room temperature for 5 minutes. The plate was read with a luminometer.
Sequence of CYP3A4 (P08684 whole entry): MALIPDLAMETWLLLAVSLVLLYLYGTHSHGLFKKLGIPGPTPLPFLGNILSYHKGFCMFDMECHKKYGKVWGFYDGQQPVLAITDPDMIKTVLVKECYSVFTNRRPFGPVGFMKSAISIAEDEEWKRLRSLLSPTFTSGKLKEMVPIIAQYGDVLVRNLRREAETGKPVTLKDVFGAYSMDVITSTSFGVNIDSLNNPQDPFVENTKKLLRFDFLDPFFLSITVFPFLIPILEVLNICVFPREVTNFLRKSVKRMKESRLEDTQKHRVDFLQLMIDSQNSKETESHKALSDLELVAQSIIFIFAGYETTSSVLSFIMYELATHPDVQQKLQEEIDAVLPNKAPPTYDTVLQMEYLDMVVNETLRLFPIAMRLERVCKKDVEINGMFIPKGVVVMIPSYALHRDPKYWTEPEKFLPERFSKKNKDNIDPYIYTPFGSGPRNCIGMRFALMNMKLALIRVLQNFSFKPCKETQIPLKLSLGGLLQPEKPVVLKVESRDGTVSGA
The dose-response curve and IC50 were obtained by fitting data to nonlinear regression model using GraphPad Prism software (v6.0).
Consider `COc1cnccc1CN(CCc1ccc(NC(=O)c2cc(OC)c(OC)cc2NC(=O)c2cc(=O)c3ccccc3o2)cc1)Cc1ccc2c(cnn2C)c1` [Compound 49], for which the IC50 was 250 to 500 nM.

The compound `COc1cc(NC(=O)c2cc(=O)c3ccccc3o2)c(C(=O)Nc2ccc(CCN(Cc3cccc(-n4ccnc4)c3)Cc3ccc4c(c3)nnn4C)cc2)cc1OC` [Compound 50] yielded an IC50 of 100 to 250 nM.

Regarding `COc1cncc(CN(CCc2ccc(NC(=O)c3cc(OC)c(OC)cc3NC(=O)c3cnc4ccccc4c3)cc2)Cc2ccc3c(cnn3C)c2)c1` [Compound 51], the IC50 fell in the range of 250 to 500 nM.

The compound `COc1cncc(CN(CCc2ccc(NC(=O)c3cc(OC)c(OC)cc3NC(=O)c3cc(=O)c4cc(C)ccc4o3)cc2)Cc2ccc3c(cnn3C)c2)c1` [Compound 52] had an IC50 of 250 to 500 nM.

In turn, `COc1cncc(CN(CCc2ccc(NC(=O)c3cc(OC)c(OC)cc3NC(=O)c3ccc4ccccc4n3)cc2)Cc2ccc3c(cnn3C)c2)c1` [Compound 53] gave a half-inhibitory concentration (IC50) of 100 to 250 nM.

On to `COc1cc(NC(=O)c2cc(=O)c3ccccc3o2)c(C(=O)Nc2ccc(CCN(Cc3cccnc3)Cc3cnc4cnc(Br)cn34)cc2)cc1OC` [Compound 54], for which the half-inhibitory concentration (IC50) fell in the range of 100 to 250 nM.

Regarding `CCOc1cncc(CN(CCc2ccc(NC(=O)c3cc(OC)c(OC)cc3NC(=O)c3cc(=O)c4ccccc4o3)cc2)Cc2ccc3c(cnn3C)c2)c1` [Compound 55], the IC50 lay in the range of 100 to 250 nM.

For the compound `COCCOc1cncc(CN(CCc2ccc(NC(=O)c3cc(OC)c(OC)cc3NC(=O)c3cc(=O)c4ccccc4o3)cc2)Cc2ccc3c(cnn3C)c2)c1` [Compound 56], the IC50 was in the range of 250 to 500 nM.

The compound `COc1cc(NC(=O)c2cc(=O)c3ccccc3o2)c(C(=O)Nc2ccc(CCN(Cc3cncc(C)c3)Cc3ccc4c(cnn4C)c3)cc2)cc1OC` [Compound 57] showed an IC50 of 250 to 500 nM.

The compound `COc1cc(NC(=O)c2cc(=O)c3ccccc3o2)c(C(=O)Nc2ccc(CCN(Cc3cncc(-n4ccnc4C)c3)Cc3ccc4c(cnn4C)c3)cc2)cc1OC` [Compound 58] yielded an IC50 of 500 to 1000 nM.

As for `COc1cc(NC(=O)c2cc(=O)c3cc(C)ccc3o2)c(C(=O)Nc2ccc(CCN(Cc3cncc(O)c3)Cc3ccc4c(cnn4C)c3)cc2)cc1OC` [Compound 59], the half-inhibitory concentration (IC50) was 100 to 250 nM.

In turn, `COCCOc1cncc(CN(CCc2ccc(NC(=O)c3cc(OC)c(OC)cc3NC(=O)c3cc(=O)c4cc(C)ccc4o3)cc2)Cc2ccc3c(cnn3C)c2)c1` [Compound 60] returned a half-maximal inhibitory concentration (IC50) of 250 to 500 nM.

The compound `COCCOc1cncc(CN(CCc2ccc(NC(=O)c3cc(OC)c(OC)cc3NC(=O)c3cnc4ccccc4c3)cc2)Cc2ccc3c(cnn3C)c2)c1` [Compound 61] returned a concentration for half-maximal inhibition (IC50) of 250 to 500 nM.

Regarding `COCCOc1cncc(CN(CCc2ccc(NC(=O)c3cc(OC)c(OC)cc3NC(=O)c3cnc4ccccc4n3)cc2)Cc2ccc3c(cnn3C)c2)c1` [Compound 62], the IC50 was 500 to 1000 nM.

`COc1cncc(CN(CCc2ccc(NC(=O)c3cc(OC)c(OC)cc3NC(=O)c3cc(=O)c4ccccc4o3)cc2)Cc2ccc3c(c2)c(C)nn3C)c1` [Compound 63] came in with an IC50 of 500 to 1000 nM.

`COc1cc(NC(=O)c2cc(=O)c3ccccc3o2)c(C(=O)Nc2ccc(CCN(Cc3cncc(C)c3)Cc3ccc4c(c3)c(C)nn4C)cc2)cc1OC` [Compound 64] showed a 50% inhibitory concentration (IC50) of 100 to 250 nM.

`COCCOc1cncc(CN(CCc2ccc(NC(=O)c3cc(OC)c(OC)cc3NC(=O)c3cc(=O)c4ccccc4o3)cc2)Cc2ccc3c(c2)c(C)nn3C)c1` [Compound 65] displayed an IC50 of 100 to 250 nM.

The compound `COc1cc(NC(=O)c2cc(=O)c3cc(C)ccc3o2)c(C(=O)Nc2ccc(CCN(Cc3cccnc3)Cc3ccc4c(c3)c(C)nn4C)cc2)cc1OC` [Compound 66] had an IC50 of 100 to 250 nM.

`COc1cncc(CN(CCc2ccc(NC(=O)c3cc(OC)c(OC)cc3NC(=O)c3cc(=O)c4cc(C)ccc4o3)cc2)Cc2ccc3c(c2)c(C)nn3C)c1` [Compound 67] registered a half-maximal inhibitory concentration (IC50) of 100 to 250 nM.

`COCCOc1cncc(CN(CCc2ccc(NC(=O)c3cc(OC)c(OC)cc3NC(=O)c3cc(=O)c4cc(C)ccc4o3)cc2)Cc2ccc3c(c2)c(C)nn3C)c1` [Compound 68] yielded an IC50 of 100 to 250 nM.

For `COc1cncc(CN(CCc2ccc(NC(=O)c3cc(OC)c(OC)cc3NC(=O)c3cc(=O)c4ccccc4o3)cc2)Cc2ccc3c(c2)n(C)c(=O)n3C)c1` [Compound 69], the IC50 fell in the range of 100 to 250 nM.

Consider `COc1cc(NC(=O)c2cnc3ccccc3n2)c(C(=O)Nc2ccc(CCN(Cc3cncc(C)c3)Cc3ccc4c(cnn4C)c3)cc2)cc1OC` [Compound 70], for which the IC50 was 100 to 250 nM.

As to `CCOc1cncc(CN(CCc2ccc(NC(=O)c3cc(OC)c(OC)cc3NC(=O)c3cc(=O)c4cc(C)ccc4o3)cc2)Cc2ccc3c(cnn3C)c2)c1` [Compound 73], the half-inhibitory concentration (IC50) was 250 to 500 nM.

Turning to `CCOc1cncc(CN(CCc2ccc(NC(=O)c3cc(OC)c(OC)cc3NC(=O)c3cnc4ccccc4n3)cc2)Cc2ccc3c(cnn3C)c2)c1` [Compound 74], the IC50 is 250 to 500 nM.

Regarding `COc1cc(NC(=O)c2cnc3ccccc3n2)c(C(=O)Nc2ccc(CCN(Cc3cncc(C(C)C)c3)Cc3ccc4c(cnn4C)c3)cc2)cc1OC` [Compound 75], the 50% inhibitory concentration (IC50) was 250 to 500 nM.

Compound `COc1cc(NC(=O)c2cc(=O)c3cc(C)ccc3o2)c(C(=O)Nc2ccc(CCN(Cc3cncc(C(C)C)c3)Cc3ccc4c(cnn4C)c3)cc2)cc1OC` [Compound 76] showed a half-maximal inhibitory concentration (IC50) of more than 1000 nM.

In turn, `COc1cc(NC(=O)c2cc(=O)c3cc(C)ccc3o2)c(C(=O)Nc2ccc(CCN(Cc3cncc(C)c3)Cc3ccc4c(cnn4C)c3)cc2)cc1OC` [Compound 77] had an IC50 of 250 to 500 nM.

As for `COc1cc(NC(=O)c2cc(=O)c3ccccc3o2)c(C(=O)Nc2ccc(CCN3CCc4ccncc4C3)cc2)cc1OC` [Compound 78], the IC50 is 500 to 1000 nM.

`COC(=O)c1ccc(C(=O)Nc2ccc(CCN(Cc3cncc(OC)c3)Cc3ccc4c(cnn4C)c3)cc2)c(NC(=O)c2cc(=O)c3ccccc3[nH]2)c1` [Compound 79] had an IC50 of 100 to 250 nM.

`COc1cc2c(cc1OC)CN(CCc1ccc(NC(=O)c3ccc(C(=O)OCc4cccnc4)cc3NC(=O)c3cc(=O)c4ccccc4o3)cc1)CC2` [Compound 80] yielded an IC50 of 500 to 1000 nM.

Regarding `COc1cc2c(cc1OC)CN(CCc1ccc(NC(=O)c3ccc(C(=O)OCc4ccncc4)cc3NC(=O)c3cc(=O)c4ccccc4o3)cc1)CC2` [Compound 81], the IC50 was more than 1000 nM.

`COc1cc(NC(=O)c2cc(=O)c3ccccc3o2)c(C(=O)Nc2ccc(CCN3CCc4cnccc4C3)cc2)cc1OC` [Compound 83] registered a concentration for half-maximal inhibition (IC50) of less than 100 nM.

The compound `CN(CCc1ccc(NC(=O)c2ccc(C(=O)OCc3cccnc3)cc2NC(=O)c2cc(=O)c3ccccc3o2)cc1)Cc1ccc2c(cnn2C)c1` [Compound 84] had a 50% inhibitory concentration (IC50) of more than 1000 nM.

Turning to `CN(CCc1ccc(NC(=O)c2ccc(C(=O)OCc3cncs3)cc2NC(=O)c2cc(=O)c3ccccc3o2)cc1)Cc1ccc2c(cnn2C)c1` [Compound 85], the IC50 fell in the range of 250 to 500 nM.

In the case of `COc1cc(NC(=O)c2cc(=O)c3ccccc3o2)c(C(=O)Nc2ccc(CCN(C)Cc3cncn3C)cc2)cc1OC` [Compound 86], the IC50 is 250 to 500 nM.

With `COc1cc(NC(=O)c2cc(=O)c3ccccc3o2)c(C(=O)Nc2ccc(CCN(C)Cc3ccc(-n4ccnc4)c(OC)c3)cc2)cc1OC` [Compound 87], the IC50 was in the range of 100 to 250 nM.

`COc1cc(NC(=O)C2CC(=O)c3ccccc3O2)c(C(=O)Nc2ccc(CCN(C)Cc3ccc(-c4cccnc4)cc3)cc2)cc1OC` (stereo not drawn) [Compound 88] displayed an IC50 of 500 to 1000 nM.

For `COc1cc(NC(=O)C2CC(=O)c3ccccc3O2)c(C(=O)Nc2ccc(CCN(C)Cc3ccc(-c4ccncc4)cc3)cc2)cc1OC` (stereo not drawn) [Compound 89], the IC50 is more than 1000 nM.

As for `CCCN(CCc1ccc(NC(=O)c2cc(OC)c(OC)cc2NC(=O)c2cc(=O)c3ccccc3o2)cc1)Cc1cccc(-n2ccnc2)c1` [Compound 90], the IC50 lay in the range of 250 to 500 nM.

Compound `CCCN(CCc1ccc(NC(=O)c2cc(OC)c(OC)cc2NC(=O)c2cc(=O)c3ccccc3o2)cc1)Cc1ccc(-n2ccnc2)c(OC)c1` [Compound 91] yielded a concentration for half-maximal inhibition (IC50) of 100 to 250 nM.

Compound `COc1cc(NC(=O)c2cc(=O)c3ccccc3o2)c(C(=O)Nc2ccc(CCN(C)Cc3ccc4c(c3)ncn4C)cc2)cc1OC` [Compound 98] returned an IC50 of more than 1000 nM.

In turn, `COc1cc(NC(=O)c2cc(=O)c3ccccc3o2)c(C(=O)Nc2ccc(CCN(Cc3cccc(-n4ccnc4)c3)CC(C)C)cc2)cc1OC` [Compound 99] gave a concentration for half-maximal inhibition (IC50) of 250 to 500 nM.

The compound `CCc1cn(-c2cccc(CN(C)CCc3ccc(NC(=O)c4cc(OC)c(OC)cc4NC(=O)c4cc(=O)c5ccccc5o4)cc3)c2)cn1` [Compound 105] returned an IC50 of 100 to 250 nM.

In turn, `CCN(CCc1ccc(NC(=O)c2cc(OC)c(OC)cc2NC(=O)c2cc(=O)c3ccccc3o2)cc1)Cc1ccc2c(cnn2C)c1` [Compound 106] yielded an IC50 of more than 1000 nM.

For `CCN(CCc1ccc(NC(=O)c2cc(OC)c(OC)cc2NC(=O)c2cc(=O)c3ccccc3o2)cc1)Cc1cccc(-n2cnc(C)c2)c1` [Compound 107], the IC50 lay in the range of 100 to 250 nM.

With `CCOc1cc(C(=O)Nc2ccc(CCN(C)Cc3ccc(-n4ccnc4)cc3)cc2)c(NC(=O)c2cc(=O)c3ccccc3o2)cc1OC` [Compound 108], the IC50 was in the range of 250 to 500 nM.

`CCN(CCc1ccc(NC(=O)c2cc(OC)c(OC)cc2NC(=O)c2cc(=O)c3ccccc3o2)cc1)Cc1ccc2c(c1)ncn2C` [Compound 109] gave an IC50 of more than 1000 nM.

Compound `CCOc1cc(C(=O)Nc2ccc(CCN(C)Cc3cccc(-n4cnc(C)c4)c3)cc2)c(NC(=O)c2cc(=O)c3ccccc3o2)cc1OC` [Compound 110] yielded a 50% inhibitory concentration (IC50) of 500 to 1000 nM.

Regarding `CCOc1cc(C(=O)Nc2ccc(CCN(C)Cc3ccc4c(cnn4C)c3)cc2)c(NC(=O)c2cc(=O)c3ccccc3o2)cc1OC` [Compound 111], the IC50 is more than 1000 nM.

`COc1cc(NC(=O)c2cc(=O)c3ccccc3o2)c(C(=O)Nc2ccc(CCN(C)Cc3ccc(-c4cscn4)cc3)cc2)cc1OC` [Compound 112] yielded a half-maximal inhibitory concentration (IC50) of more than 1000 nM.

With `COc1cc(NC(=O)c2cc(=O)c3ccccc3o2)c(C(=O)Nc2ccc(CCN(C)Cc3ccc(-c4ncco4)cc3)cc2)cc1OC` [Compound 114], the IC50 is more than 1000 nM.
